In PubChem BioAssay AID1919017 (Molecular Pharmacology Branch, DTP, NCI, 2023):
Where “and” joins values, the source holds several entries; their conditions need not be identical. Equal values may be shown once.

Tested on: SW1271 complex spheroids with HUVEC/MSC, growth, % test/control
Experiment: Anticancer human tumor SW1271 cell line growth inhibition [AhR];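 also: spheroids exposed to agents for 7 days before readout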
Conditions: for viability, T/C: stronger effect = lower value
Outline: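 Complex tumor spheroids co-cultured with HUVEC and human MSC stroma; AhR antagonists tested in combination with standard-of-care and investigational agents. Top concentration at or near clinical Cmax (else 10 microM), half-log dilutions; growth expressed as percent test/control.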

[1] = curve of first compound, second compound 0.1 µM
[2] = curve of first compound, second compound 0.316 µM
[3] = curve of first compound, second compound 1 µM
[4] = curve of first compound, second compound 3.16 µM
[5] = curve of first compound, second compound 10 µM
[6] = second compound 0.1 µM, first compound 0.00949 µM
[7] = second compound 0.1 µM, first compound 0.03 µM
[8] = second compound 0.1 µM, first compound 0.0949 µM
[9] = second compound 0.1 µM, first compound 0.3 µM
[10] = second compound 0.1 µM, first compound 0.949 µM
[11] = second compound 0.1 µM, first compound 3 µM
[12] = second compound 0.316 µM, first compound 0.00949 µM
[13] = second compound 0.316 µM, first compound 0.03 µM
[14] = second compound 0.316 µM, first compound 0.0949 µM
[15] = second compound 0.316 µM, first compound 0.3 µM
[16] = second compound 0.316 µM, first compound 0.949 µM
[17] = second compound 0.316 µM, first compound 3 µM
[18] = second compound 1 µM, first compound 0.00949 µM
[19] = second compound 1 µM, first compound 0.03 µM
[20] = second compound 1 µM, first compound 0.0949 µM
[21] = second compound 1 µM, first compound 0.3 µM
[22] = second compound 1 µM, first compound 0.949 µM
[23] = second compound 1 µM, first compound 3 µM
[24] = second compound 3.16 µM, first compound 0.00949 µM
[25] = second compound 3.16 µM, first compound 0.03 µM
[26] = second compound 3.16 µM, first compound 0.0949 µM
[27] = second compound 3.16 µM, first compound 0.3 µM
[28] = second compound 3.16 µM, first compound 0.949 µM
[29] = second compound 3.16 µM, first compound 3 µM
[30] = second compound 10 µM, first compound 0.00949 µM
[31] = second compound 10 µM, first compound 0.03 µM
[32] = second compound 10 µM, first compound 0.0949 µM
[33] = second compound 10 µM, first compound 0.3 µM
[34] = second compound 10 µM, first compound 0.949 µM
[35] = second compound 10 µM, first compound 3 µM

## O=C(C=Cn1cnc(-c2cc(C(F)(F)F)cc(C(F)(F)F)c2)n1)NNc1cnccn1 + Cc1ccccc1N=Nc1ccc(NC(=O)c2ccnn2C)c(C)c1
[1]
  IC50: 2020 nM
[2]
  IC50: 1390 nM
[3]
  IC50: 2470 nM
[4]
  IC50: > 3000 nM
[5]
  IC50: > 3000 nM
[6]
  viability, T/C: 87%
[7]
  viability, T/C: 111%
[8]
  viability, T/C: 86.1%
[9]
  viability, T/C: 64.5%
[10]
  viability, T/C: 54.1%
[11]
  viability, T/C: 46.7%
[12]
  viability, T/C: 78.9%
[13]
  viability, T/C: 86.2%
[14]
  viability, T/C: 84%
[15]
  viability, T/C: 64.8%
[16]
  viability, T/C: 56%
[17]
  viability, T/C: 42.8%
[18]
  viability, T/C: 111%
[19]
  viability, T/C: 85.7%
[20]
  viability, T/C: 79%
[21]
  viability, T/C: 79.2%
[22]
  viability, T/C: 59.4%
[23]
  viability, T/C: 45.8%
[24]
  viability, T/C: 109%
[25]
  viability, T/C: 95.6%
[26]
  viability, T/C: 99.7%
[27]
  viability, T/C: 61.4%
[28]
  viability, T/C: 64.9%
[29]
  viability, T/C: 49%
[30]
  viability, T/C: 94.8%
[31]
  viability, T/C: 93%
[32]
  viability, T/C: 107%
[33]
  viability, T/C: 71.2%
[34]
  viability, T/C: 61.4%
[35]
  viability, T/C: 45.7%

## Nc1ncn(C2CC(O)C(CO)S2)c(=O)n1 (configuration not stated)
Compound 0.000949 µM
  viability, T/C: 87.6% and 102% and 94.9%
Compound 0.003 µM
  viability, T/C: 97.8% and 95.9% and 114%
Compound 0.00949 µM
  viability, T/C: 85.7% and 82.9% and 113%
Compound 0.03 µM
  viability, T/C: 94.8% and 90.3% and 103%
Compound 0.0949 µM
  viability, T/C: 89.2% and 85.8% and 94.6%
Compound 0.3 µM
  viability, T/C: 78.8% and 82.7% and 78.6%
Curve of compound
  IC50: > 300 nM

## Nc1ccccc1NC(=O)c1ccc(CNC(=O)OCc2cccnc2)cc1 + CC(CO)NC(=O)c1cc(-c2ccc(Cl)cc2)nn(-c2cnn(C)c2)c1=O
[1]
  IC50: 1040 nM
[2]
  IC50: 838 nM
[3]
  IC50: 676 nM
[4]
  IC50: 1000 nM
[5]
  IC50: 294 nM
Second compound 0.1 µM, first compound 0.0316 µM
  viability, T/C: 92.2%
Second compound 0.1 µM, first compound 0.1 µM
  viability, T/C: 89.6%
Second compound 0.1 µM, first compound 0.316 µM
  viability, T/C: 78.5%
Second compound 0.1 µM, first compound 1 µM
  viability, T/C: 43%
Second compound 0.1 µM, first compound 3.16 µM
  viability, T/C: 34.8%
Second compound 0.1 µM, first compound 10 µM
  viability, T/C: 10.7%
Second compound 0.316 µM, first compound 0.0316 µM
  viability, T/C: 103%
Second compound 0.316 µM, first compound 0.1 µM
  viability, T/C: 85.2%
Second compound 0.316 µM, first compound 0.316 µM
  viability, T/C: 67.3%
Second compound 0.316 µM, first compound 1 µM
  viability, T/C: 41.4%
Second compound 0.316 µM, first compound 3.16 µM
  viability, T/C: 35%
Second compound 0.316 µM, first compound 10 µM
  viability, T/C: 9.29%
Second compound 1 µM, first compound 0.0316 µM
  viability, T/C: 87.7%
Second compound 1 µM, first compound 0.1 µM
  viability, T/C: 82%
Second compound 1 µM, first compound 0.316 µM
  viability, T/C: 60.4%
Second compound 1 µM, first compound 1 µM
  viability, T/C: 40.8%
Second compound 1 µM, first compound 3.16 µM
  viability, T/C: 30.2%
Second compound 1 µM, first compound 10 µM
  viability, T/C: 10.4%
Second compound 3.16 µM, first compound 0.0316 µM
  viability, T/C: 65.2%
Second compound 3.16 µM, first compound 0.1 µM
  viability, T/C: 64.7%
Second compound 3.16 µM, first compound 0.316 µM
  viability, T/C: 65.5%
Second compound 3.16 µM, first compound 1 µM
  viability, T/C: 44.9%
Second compound 3.16 µM, first compound 3.16 µM
  viability, T/C: 34.5%
Second compound 3.16 µM, first compound 10 µM
  viability, T/C: 11%
Second compound 10 µM, first compound 0.0316 µM
  viability, T/C: 70.2%
Second compound 10 µM, first compound 0.1 µM
  viability, T/C: 63%
Second compound 10 µM, first compound 0.316 µM
  viability, T/C: 43.5%
Second compound 10 µM, first compound 1 µM
  viability, T/C: 43.6%
Second compound 10 µM, first compound 3.16 µM
  viability, T/C: 19%
Second compound 10 µM, first compound 10 µM
  viability, T/C: 11.4%

## CCN(c1cc(-c2ccc(CN3CCOCC3)cc2)cc(C(=O)NCc2c(C)cc(C)[nH]c2=O)c1C)C1CCOCC1 + CC(CO)NC(=O)c1cc(-c2ccc(Cl)cc2)nn(-c2cnn(C)c2)c1=O
[1]
  IC50: > 3000 nM
[2]
  IC50: > 3000 nM
[3]
  IC50: > 3000 nM
[4]
  IC50: > 3000 nM
[5]
  IC50: > 3000 nM
[6]
  viability, T/C: 122%
[7]
  viability, T/C: 117%
[8]
  viability, T/C: 106%
[9]
  viability, T/C: 97.2%
[10]
  viability, T/C: 102%
[11]
  viability, T/C: 91.8%
[12]
  viability, T/C: 101%
[13]
  viability, T/C: 108%
[14]
  viability, T/C: 120%
[15]
  viability, T/C: 113%
[16]
  viability, T/C: 110%
[17]
  viability, T/C: 112%
[18]
  viability, T/C: 86.6%
[19]
  viability, T/C: 105%
[20]
  viability, T/C: 119%
[21]
  viability, T/C: 94.5%
[22]
  viability, T/C: 105%
[23]
  viability, T/C: 110%
[24]
  viability, T/C: 91.9%
[25]
  viability, T/C: 88%
[26]
  viability, T/C: 103%
[27]
  viability, T/C: 89.3%
[28]
  viability, T/C: 106%
[29]
  viability, T/C: 90.3%
[30]
  viability, T/C: 91.7%
[31]
  viability, T/C: 94.5%
[32]
  viability, T/C: 81.3%
[33]
  viability, T/C: 84.9%
[34]
  viability, T/C: 74.1%
[35]
  viability, T/C: 79.4%
